Laboratory results reported in patent US10428045B2, “Benzazepine compounds, conjugates, and uses thereof” (Silverback Therapeutics, Inc., priority 2017, dated 2019).

Experiments:
[1] = test system: Trop2+ MDA-MB-453 cells; experiment: Antigen dependent human monocyte activation in mouse model, TROP2+ tumor; type: in vivo; details: NOD SCID mice with TROP2+ tumor, 5-20 mg/kg intravenously, human monocytes injected intratumorally
Experimental: (§1) Human monocytes were prepared as described above. Trop2^+ MDA-MB-453 cells or Trop2^− MiaPaca2 were cultured by standard methods. A TLR8 benzazepine linker payload (LP) was prepared by attaching a MCC (N-maleimidomethyl]cyclohexane-1-carboxylate) linker in place of the mc-vc-PABA linker in Compound-Linker 2.1 to form Compound-Linker 2.22. TROP2-TLR8 benzazepine conjugates were prepared by conjugation of Compound-Linker 2.22 to a TROP2 antibody (sacituzumab) to form a conjugate with an average DAR of about 4.
(§2) On Day 1 NOD SCID mice were injected with 5×10^5 Trop2^+ MDA-MB-453 cells or Trop2-MiaPaca2 cells. Seven to ten days later when the tumor size reached about 300 mm^3, the mice were injected intraveneously with 5-20 mg/kg of the TROP2-TLR8 benzazepine conjugate or TROP2 antibody alone. Sixteen hours later, 10^6 human monocytes were injected intratumorally. Four to six hours later, the tumors were harvested and digested. Monocytes were identified by staining for cell surface markers and monocyte activation was determined by intracellular staining for IL-6.

[2] = test system: Trop2− MiaPaca2; experiment: Antigen dependent human monocyte activation in mouse model, TROP2− tumor; type: in vivo; details: NOD SCID mice with TROP2− tumor, 5-20 mg/kg intravenously, human monocytes injected intratumorally
Experimental: as §1, §2

control antibody: "TROP2 antibody alone"; "a TROP2 antibody (sacituzumab)"
human monocyte activation (intracellular staining for IL-6) [1]: did not cause human monocyte activation
human monocyte activation (intracellular staining for IL-6) [2]: did not cause human monocyte activation
